From patent publication US7288653B2, “Inhibitors of proton-gated cation channels and their use in the treatment of ischaemic disorders” (PainCeptor Pharma Corporation, priority 1999, dated 2007)
pIC50: −log10 of the molar value. Read-outs that look alike come from different tables or passages of the source.

How the values were obtained:
[1] = target: T1, naturally occurring proton-gated cation channel in a HEK293 cell (Homo sapiens, UniProt P78348); assay: Patch clamp of whole cell currents elicited by a drop in extracellular pH in HEK293 cells; format: cell-based; conditions: read-out: IC50, inhibition of the proton activated response
T1 construct: a naturally occurring proton-gated cation channel in a HEK293 cell; endogenous in cells; host or cells: HEK293
T1 sequence (P78348 1-528): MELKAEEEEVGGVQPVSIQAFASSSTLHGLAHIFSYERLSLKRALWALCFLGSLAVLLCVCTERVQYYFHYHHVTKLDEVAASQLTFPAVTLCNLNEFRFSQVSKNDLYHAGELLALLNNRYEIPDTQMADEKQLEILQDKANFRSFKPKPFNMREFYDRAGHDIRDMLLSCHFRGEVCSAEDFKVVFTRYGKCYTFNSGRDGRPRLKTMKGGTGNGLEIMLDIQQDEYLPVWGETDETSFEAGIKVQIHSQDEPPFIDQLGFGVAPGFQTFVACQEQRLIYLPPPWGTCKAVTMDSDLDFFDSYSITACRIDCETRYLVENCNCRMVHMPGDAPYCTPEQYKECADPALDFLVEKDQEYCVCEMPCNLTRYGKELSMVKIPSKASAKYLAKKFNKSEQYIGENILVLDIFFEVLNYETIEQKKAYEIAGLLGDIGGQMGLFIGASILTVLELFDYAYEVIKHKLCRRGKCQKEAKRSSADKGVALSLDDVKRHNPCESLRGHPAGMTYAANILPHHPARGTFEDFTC
Protocol: In this example the current flux induced by protons over the membrane of a naturally occurring proton-gated cation channel in a HEK293 cell was determined using patch clamp techniques.
Using this technique, the effects of the compounds for use according to the invention was investigated on whole cell currents elicited by a drop in extracellular pH from 7.4 to 6.5.

[2] = system: proton-gated cation channels in cultured mouse cortical neurons; assay: Whole cell patch clamp of proton-gated currents in cultured mouse cortical neurons; format: cell-based
Protocol: The following experiments were performed in voltage-or current clamp using conventional whole cell patch clamp methods [Hamill O P, Marty A, Neher E, Sakmann B and Sigworth F J: Improved patch-clamp techniques for high-resolution current recording from cells and cell-free membrane patches; Pflügers Arch. 1981 39 85-100]. The following salt solutions were used (where nothing else stated, the chemicals are available from Sigma): NaCl (140 mM), KCl (4 mM), CaCl2 (2 mM), MgCl2 (1 mM), Sucrose (30 mM; Available from Fluka Chemie, Buchs, Switzerland), HEPES (10 mM, pH 6-7.4). Solutions with pH<6 were buffered with MES (10 mM) in stead of HEPES. Solutions with no added Ca^2+ contained 3 mM MgCl2. Solutions with no added Na^+ contained 140 mM N-methyl-D-glucamine. For voltage clamp experiments, the extracellular solutions were added Tetrodotoxin (0.0003 mM; Available from Alomone Labs, Jerusalem, Israel) and Bicuculline Methiodide (0.005 mM; Available from RBI, MA, USA).
Intracellular solution for voltage clamp experiments: CsCl (120 mM), CsF (20 mM), MgCl2 (2 mM), EGTA (10 mM), HEPES (10 mM; pH=7.2). […]
For voltage clamp experiments, the cells were held at a holding voltage of −60 mV and at the start of each experiment the current was continuously measured for at least 30 sec. to ensure a stable leak current. […]

[3] = extracellular pH drop from 7.4 to 6.5, group IC50 below 10 μM (of from 1 μM to 10 μM)
[4] = extracellular pH drop from 7.4 to 6.5, group IC50 below 1 μM (of from 100 nM to 1 μM)
[5] = extracellular pH drop from 7.4 to 6.5, group IC50 below 100 nM

SMILES | pIC50 [1, 3] | melting point | pIC50 [1, 4] | other results
O=C1Nc2c(cc(-c3ccccc3)c3c2CN(CC2CC2)CC3)C1=NO [8-cyclopropylmethyl-5-phenyl-6,7,8,9-tetrahydro-1H-pyrrolo-[3,2-h]-isoquinoline-2,3-dione-3-oxime] |  | 170 °C (dec.) | > 6.00 | 
O=C1Nc2c(cc(-c3ccccc3)c3c2CN(Cc2ccccc2)CC3)C1=NO [8-benzyl-5-phenyl-6-7-8-9-tetrahydro-1H-pyrrolo-[3,2-h]-isoquinoline-2,3-dione-3-oxim] |  | 160 °C (dec.) | > 6.00 | 
CN1CCc2c(-c3ccccc3)cc3c(c2C1)NC(=O)C3=NO [8-methyl-5-phenyl-6-7-8-9-tetrahydro-1H-pyrrolo-[3,2-h]-isoquinoline-2,3-dione-3-oxim] |  |  |  | pIC50 [1, 5]: > 7.00
CON=C1C(=O)Nc2c1cc(-c1ccccc1)c1c2CN(C)CC1 [8-methyl-5-phenyl-6-7-8-9-tetrahydro-1H-pyrrolo-[3,2-h]-isoquinoline-2,3-dione-3-methyloxim] |  |  | > 6.00 | 
N=C(N)NC(=O)c1nc(Cl)c(N)nc1N [Amiloride, N-amidino-3,5-diamino-6-chloropyrazine-2-carboxamide] |  |  |  | Effect on proton-gated currents ([2]; 100 μM Amiloride, saline at pH 6, voltage clamp −60 mV): inhibited; pIC50 ([2]; cultured mouse cortical neuron, voltage clamp −60 mV, saline at pH 6, Hill equation fit, read-out: IC50, inhibition of proton-gated currents): 5.21
CC(=O)ON=C1C(=O)Nc2c1cc(-c1ccccc1)c1c2CN(C)CC1 [8-methyl-5-phenyl-6,7,8,9-tetrahydro-1H-pyrrolo-[3,2-h]-isoquinoline-2,3-dione-3-acetyloxim] |  |  |  | pIC50 [1, 5]: > 7.00
COc1ccc(-c2cc3c(c4c2CCN(C)C4)NC(=O)C3=NO)cc1 [8-methyl-5-(4-methoxyphenyl)-6-7-8-9-tetrahydro-1-H-pyrrolo-[3.2-h]-isoquinoline-2,3-dione-3-oxim] | 5.00 to 6.00 |  |  | 

Now from value to molecule, other results behind:

pIC50 [1, 3] | melting point | pIC50 [1, 4] | SMILES | other results
5.00 to 6.00 | 170 °C (dec.) |  | C#CCN1CCc2c(-c3ccccc3)cc3c(c2C1)NC(=O)C3=NO [8-(2-propynyl)-5-phenyl-6,7,8,9-tetrahydro-1H-pyrrolo-[3,2-h]-isoquinoline-2,3-dione-3-oxime] | 
5.00 to 6.00 |  |  | O=C1Nc2c(cc(-c3ccccc3)c3c2CCCC3)/C1=N/O [5-phenyl-6-7-8-9-tetrahydro-1-H-pyrrolo-[3.2-h]-naphthalene-2,3-dione-3-oxim] | 
